Measurements taken from patent publication USRE47689E1, “Compounds for treating spinal muscular atrophy” (PTC Therapeutics, Inc., priority 2011, dated 2019).
Where two headings read alike, the source gives them in different places.

How the values were obtained:
[1] = tested on: SMN2 minigene (full length SMN2 minigene mRNA containing SMN2 exon 7); assay: SMN2 minigene mRNA splicing RT-qPCR assay in cultured cells; format: cell-based, human; conditions: Homo sapiens, HEK293-H, read-out: EC1.5x for production of full length SMN2 mRNA
How it was run: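 Lysates → one-step RT-qPCR, minigene-specific primers (0.4 μM final) + GAPDH multiplex, 40 cycles. FL/GAPDH vs DMSO; EC1.5x, star-binned.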

[2] = tested on: Smn protein; assay: Smn protein assay in cultured cells (SMN HTRF); format: cell-based, human; conditions: 48 hours; for EC1.5x (concentration giving 1.5-fold Smn protein increase): SMA Type 1 patient fibroblast cells (GM03813), 7-point concentration curve, SMN HTRF, concentration producing 1.5 times Smn protein vs DMSO vehicle control, read-out: EC1.5x for Smn protein expression; for maximum fold (Fold) increase of Smn protein: SMA patient fibroblast cells, 7-point concentration data, fold increase relative to vehicle control (SMN HTRF)
How it was run: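 Smn in SMA fibroblast lysates, measured by anti-SMN HTRF after 48 h compound exposure; EC1.5x from fold change over vehicle.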

[3] = HEK293H cells stably transfected with SMN2-A minigene, 24 hours, 7-point concentration curve, 1.5-fold relative to vehicle-treated cells

Question: Which results are given for `Cc1nccn2cc(-c3cc4ccc(N5CCN[C@H](C)C5)cc4oc3=O)cc12` [Compound 586, 7-[(3R)-3-methylpiperazin-1-yl]-3-(1-methylpyrrolo[1,2-a]pyrazin-7-yl)-2H-chromen-2-one]?
Answer: melting point: 212 to 215 °C; EC (1.5-fold) [1, 3]: < 0.1 µM; EC1.5x (concentration giving 1.5-fold Smn protein increase) [2]: < 300 nM; maximum fold (Fold) increase of Smn protein [2]: *** (fold increase between >1.35 and ≤1.5)

Question: Which results are given for `Cc1nccn2cc(-c3cc4ccc(N5CCCNCC5)cc4oc3=O)cc12` [Compound 587, 7-(1,4-diazepan-1-yl)-3-(1-methylpyrrolo[1,2-a]pyrazin-7-yl)-2H-chromen-2-one]?
Answer: melting point: 210 to 213 °C; EC (1.5-fold) [1, 3]: < 0.1 µM; EC1.5x (concentration giving 1.5-fold Smn protein increase) [2]: < 300 nM; maximum fold (Fold) increase of Smn protein [2]: **** (fold increase between >1.5 and ≤1.65)

Question: For `Cc1cn2cc(-c3cc4ccc(N5CCCN(C)CC5)cc4oc3=O)cc2cn1` [Compound 589, 7-(4-methyl-1,4-diazepan-1-yl)-3-(3-methylpyrrolo[1,2-a]pyrazin-7-yl)-2H-chromen-2-one], which melting point is on record?
Answer: 148 to 150 °C

Question: And the EC (1.5-fold) [1, 3]?
Answer: < 0.1 µM

Question: What about the EC1.5x (concentration giving 1.5-fold Smn protein increase) [2] of the same compound?
Answer: < 300 nM

Question: What about the “maximum fold (Fold) increase of Smn protein” value (from here on “maximum fold (Fold) increase”) [2] of the same compound?
Answer: ***** (fold increase >1.65)

Question: Which results are given for `Cc1cn2cc(-c3cc4ccc(N5CCN(C)CC5)cc4oc3=O)cc2cn1` [Compound 590, 7-(4-methylpiperazin-1-yl)-3-(3-methylpyrrolo[1,2-a]pyrazin-7-yl)-2H-chromen-2-one]?
Answer: melting point: 212 to 214 °C; EC (1.5-fold) [1, 3]: < 0.1 µM; EC1.5x (concentration giving 1.5-fold Smn protein increase) [2]: < 300 nM; maximum fold (Fold) increase of Smn protein [2]: ***** (fold increase >1.65)

Question: With `Cc1cn2cc(-c3cc4c(F)cc(N5CCCN(C)CC5)cc4oc3=O)nc2cn1` [Compound 591, 5-fluoro-7-(4-methyl-1,4-diazepan-1-yl)-3-(6-methylimidazo[1,2-a]pyrazin-2-yl)-2H-chromen-2-one] as the compound, how does the melting point read?
Answer: 210 to 212 °C

Question: What about the EC (1.5-fold) [1, 3] of the same compound?
Answer: < 0.1 µM

Question: And the EC1.5x (concentration giving 1.5-fold Smn protein increase) [2]?
Answer: < 300 nM

Question: And the “maximum fold (Fold) increase” value [2]?
Answer: ***** (fold increase >1.65)

Question: With `Cc1cn2cc(-c3cc4c(F)cc(N5CCN(C)CC5)cc4oc3=O)nc2cn1` [Compound 592, 5-fluoro-3-(6-methylimidazo[1,2-a]pyrazin-2-yl)-7-(4-methylpiperazin-1-yl)-2H-chromen-2-one] as the compound, how does the melting point read?
Answer: 283 to 284 °C

Question: What about the EC (1.5-fold) [1, 3] of the same compound?
Answer: < 0.1 µM

Question: And the EC1.5x (concentration giving 1.5-fold Smn protein increase) [2]?
Answer: < 300 nM

Question: And the “maximum fold (Fold) increase” value [2]?
Answer: ***** (fold increase >1.65)

Question: For `Cc1cn2cc(-c3cc4ccc(O[C@@H]5CCNC5)cc4oc3=O)nc2cn1` [Compound 594, 3-(6-methylimidazo[1,2-a]pyrazin-2-yl)-7-[(3R)-pyrrolidin-3-yloxy]-2H-chromen-2-one], which melting point is on record?
Answer: 254 to 258 °C

Question: And the EC (1.5-fold) [1, 3]?
Answer: < 0.1 µM

Question: And the EC1.5x (concentration giving 1.5-fold Smn protein increase) [2]?
Answer: < 300 nM

Question: What about the “maximum fold (Fold) increase” value [2] of the same compound?
Answer: ***** (fold increase >1.65)

Question: Which melting point does the source give for `Cc1ccn2cc(-c3cc4ccc(N5CCNC6(CCC6)C5)cc4oc3=O)nc2c1` [Compound 595, 7-(5,8-diazaspiro[3.5]non-8-yl)-3-(7-methylimidazo[1,2-a]pyridin-2-yl)-2H-chromen-2-one] here?
Answer: 226 to 233 °C

Question: What about the EC (1.5-fold) [1, 3] of the same compound?
Answer: 0.3 to 1 µM

Question: And the “maximum fold (Fold) increase” value [2]?
Answer: ** (fold increase between >1.2 and ≤1.35)

Question: With `Cc1ccn2cc(-c3cc4ccc(N5CCNC6(CCCC6)C5)cc4oc3=O)nc2c1` [Compound 596, 7-(6,9-diazaspiro[4.5]dec-9-yl)-3-(7-methylimidazo[1,2-a]pyridin-2-yl)-2H-chromen-2-one] as the compound, how does the melting point read?
Answer: 180 °C

Question: What about the EC (1.5-fold) [1, 3] of the same compound?
Answer: 0.3 to 1 µM

Question: What about the “maximum fold (Fold) increase” value [2] of the same compound?
Answer: ** (fold increase between >1.2 and ≤1.35)

Question: Which results are given for `Cc1ccn2cc(-c3cc4ccc(N5CC6CCC5CN6)cc4oc3=O)nc2c1` (stereo not shown) [Compound 597, 7-(2,5-diazabicyclo[2.2.2]oct-2-yl)-3-(7-methylimidazo[1,2-a]pyridin-2-yl)-2H-chromen-2-one]?
Answer: melting point: 196 to 215 °C; EC (1.5-fold) [1, 3]: < 0.1 µM; EC1.5x (concentration giving 1.5-fold Smn protein increase) [2]: < 300 nM; maximum fold (Fold) increase of Smn protein [2]: **** (fold increase between >1.5 and ≤1.65)

Question: Which melting point does the source give for `Cc1cc(F)c2nc(-c3cc4ccc(N5CCNC6(CCC6)C5)cc4oc3=O)cn2c1` [Compound 598, 7-(5,8-diazaspiro[3.5]non-8-yl)-3-(8-fluoro-6-methylimidazo[1,2-a]pyridin-2-yl)-2H-chromen-2-one] here?
Answer: 244 to 254 °C

Question: What about the EC (1.5-fold) [1, 3] of the same compound?
Answer: 0.1 to 0.3 µM

Question: What about the “maximum fold (Fold) increase” value [2] of the same compound?
Answer: *** (fold increase between >1.35 and ≤1.5)

Question: For `Cc1cc(F)c2nc(-c3cc4ccc(N5CCNC6(CCCC6)C5)cc4oc3=O)cn2c1` [Compound 599, 7-(6,9-diazaspiro[4.5]dec-9-yl)-3-(8-fluoro-6-methylimidazo[1,2-a]pyridin-2-yl)-2H-chromen-2-one], which melting point is on record?
Answer: 236 to 242 °C

Question: And the EC (1.5-fold) [1, 3]?
Answer: 0.1 to 0.3 µM

Question: And the “maximum fold (Fold) increase” value [2]?
Answer: *** (fold increase between >1.35 and ≤1.5)

Question: With `Cc1cc(F)c2nc(-c3cc4ccc(N5CC6CCC5CN6)cc4oc3=O)cn2c1` (stereo not shown) [Compound 600, 7-(2,5-diazabicyclo[2.2.2]oct-2-yl)-3-(8-fluoro-6-methylimidazo[1,2-a]pyridin-2-yl)-2H-chromen-2-one] as the compound, how does the melting point read?
Answer: 246 to 256 °C

Question: What about the EC (1.5-fold) [1, 3] of the same compound?
Answer: < 0.1 µM

Question: What about the EC1.5x (concentration giving 1.5-fold Smn protein increase) [2] of the same compound?
Answer: < 300 nM

Question: And the “maximum fold (Fold) increase” value [2]?
Answer: ***** (fold increase >1.65)

Question: With `O=c1oc2cc(N3CCNCC3)ccc2cc1-c1cc2ccccc2o1` [Compound 602, 3-(1-benzofuran-2-yl)-7-(piperazin-1-yl)-2H-chromen-2-one] as the compound, how does the melting point read?
Answer: 208 to 211 °C

Question: And the EC (1.5-fold) [1, 3]?
Answer: 0.3 to 1 µM

Question: And the “maximum fold (Fold) increase” value [2]?
Answer: * (maximum fold increase of ≤1.2)

Question: Which results are given for `C[C@H]1CN(c2ccc3cc(-c4cc5ccccc5o4)c(=O)oc3c2)CCN1` [Compound 603, 3-(1-benzofuran-2-yl)-7-[(3S)-3-methylpiperazin-1-yl]-2H-chromen-2-one]?
Answer: melting point: 192 to 194 °C; EC (1.5-fold) [1, 3]: 0.3 to 1 µM; maximum fold (Fold) increase of Smn protein [2]: * (maximum fold increase of ≤1.2)

Question: With `C[C@@H]1CN(c2ccc3cc(-c4cc5ccccc5o4)c(=O)oc3c2)C[C@H](C)N1` [Compound 604, 3-(1-benzofuran-2-yl)-7-[(3R,5S)-3,5-dimethylpiperazin-1-yl]-2H-chromen-2-one] as the compound, how does the melting point read?
Answer: 191 to 193 °C

Question: What about the EC (1.5-fold) [1, 3] of the same compound?
Answer: 0.3 to 1 µM

Question: And the “maximum fold (Fold) increase” value [2]?
Answer: * (maximum fold increase of ≤1.2)

Question: With `Cc1cn2cc(-c3cc4ccc(N5C[C@@H](C)N(C)[C@@H](C)C5)cc4oc3=O)nc2c(C)n1` [Compound 605, 3-(6,8-dimethylimidazo[1,2-a]pyrazin-2-yl)-7-[(3R,5S)-3,4,5-trimethylpiperazin-1-yl]-2H-chromen-2-one] as the compound, how does the melting point read?
Answer: 229 to 232 °C

Question: And the EC (1.5-fold) [1, 3]?
Answer: < 0.1 µM

Question: And the EC1.5x (concentration giving 1.5-fold Smn protein increase) [2]?
Answer: < 300 nM

Question: And the “maximum fold (Fold) increase” value [2]?
Answer: ***** (fold increase >1.65)

Question: What does the source list for `Cc1cn2cc(-c3cc4ccc(N5CCN(C)[C@H](C)C5)cc4oc3=O)nc2c(C)n1` [Compound 606, 3-(6,8-dimethylimidazo[1,2-a]pyrazin-2-yl)-7-[(3R)-3,4-dimethylpiperazin-1-yl]-2H-chromen-2-one]?
Answer: melting point: 220 to 221 °C; EC (1.5-fold) [1, 3]: < 0.1 µM; EC1.5x (concentration giving 1.5-fold Smn protein increase) [2]: < 300 nM; maximum fold (Fold) increase of Smn protein [2]: ***** (fold increase >1.65)

Question: Which results are given for `Cc1cn2cc(-c3cc4c(F)cc(N5CCCNCC5)cc4oc3=O)nc2c(C)n1` [Compound 608, 7-(1,4-diazepan-1-yl)-3-(6,8-dimethylimidazo[1,2-a]pyrazin-2-yl)-5-fluoro-2H-chromen-2-one]?
Answer: melting point: 248 to 250 °C; EC (1.5-fold) [1, 3]: < 0.1 µM; EC1.5x (concentration giving 1.5-fold Smn protein increase) [2]: < 300 nM; maximum fold (Fold) increase of Smn protein [2]: ***** (fold increase >1.65)

Question: With `Cc1nccn2cc(-c3cc4ccc(O[C@@H]5CCNC5)cc4oc3=O)nc12` [Compound 610, 3-(8-methylimidazo[1,2-a]pyrazin-2-yl)-7-[(3R)-pyrrolidin-3-yloxy]-2H-chromen-2-one] as the compound, how does the melting point read?
Answer: 220 to 230 °C

Question: What about the EC (1.5-fold) [1, 3] of the same compound?
Answer: 0.3 to 1 µM

Question: And the “maximum fold (Fold) increase” value [2]?
Answer: ** (fold increase between >1.2 and ≤1.35)

Question: Which results are given for `Cc1cc(F)c2nc(-c3cc4ccc(N5CCN6CCC[C@@H]6C5)cc4oc3=O)cn2c1` [Compound 611, 3-(8-fluoro-6-methylimidazo[1,2-a]pyridin-2-yl)-7-[(8aR)-hexahydropyrrolo[1,2-a]pyrazin-2(1H)-yl]-2H-chromen-2-one]?
Answer: melting point: 296 to 306 °C; EC (1.5-fold) [1, 3]: 0.3 to 1 µM; EC1.5x (concentration giving 1.5-fold Smn protein increase) [2]: 1000 to 3000 nM; maximum fold (Fold) increase of Smn protein [2]: **** (fold increase between >1.5 and ≤1.65)

Question: Which melting point does the source give for `Cc1cc(F)c2nc(-c3cc4ccc(N5CCN6CCCCC6C5)cc4oc3=O)cn2c1` (stereo not shown) [Compound 612, 3-(8-fluoro-6-methylimidazo[1,2-a]pyridin-2-yl)-7-(octahydro-2H-pyrido[1,2-a]pyrazin-2-yl)-2H-chromen-2-one] here?
Answer: 268 to 275 °C

Question: And the EC (1.5-fold) [1, 3]?
Answer: 0.3 to 1 µM

Question: What about the “maximum fold (Fold) increase” value [2] of the same compound?
Answer: ** (fold increase between >1.2 and ≤1.35)

Question: With `Cc1cc(F)c2nc(-c3cc4ccc(N5CC6CCC(C5)N6C)cc4oc3=O)cn2c1` [Compound 613, 3-(8-fluoro-6-methylimidazo[1,2-a]pyridin-2-yl)-7-(8-methyl-3,8-diazabicyclo[3.2.1]oct-3-yl)-2H-chromen-2-one] as the compound, how does the melting point read?
Answer: 267 to 274 °C

Question: What about the EC (1.5-fold) ([1]; 24 h) of the same compound?
Answer: 0.3 to 1 µM

Question: What about the “maximum fold (Fold) increase” value [2] of the same compound?
Answer: ** (fold increase between >1.2 and ≤1.35)
